Results reported in publication PMC11311821, “Biochemical Characterisation of Sis: A Distinct Thermophilic PETase with Enhanced NanoPET Substrate Hydrolysis and Thermal Stability” (International Journal of Molecular Sciences, 2024).

System: Sis
Assay: spectrophotometric p-nitrophenol release at […] nm
Format: biochemical, metagenome: geothermal site (36 °C, pH 9.8)
Details: optimal conditions of pH and temperature (sodium-phosphate pH 7.0, 70 °C)

Km: 80 ± 10 µM
Structure (SMILES): CCCC(=O)Oc1ccc([N+](=O)[O-])cc1 [pNP-butyrate]
